# Measurements as given in patent US20230088214A1, “GLYCOLATE OXIDASE INHIBITORS FOR THE TREATMENT OF DISEASE” (BIOMARIN PHARMACEUTICAL INC., priority 2019, published 2023).
# Molecular target: T1, GO (Homo sapiens, UniProt Q9UJM8)
# T1 sequence (Q9UJM8 1-370): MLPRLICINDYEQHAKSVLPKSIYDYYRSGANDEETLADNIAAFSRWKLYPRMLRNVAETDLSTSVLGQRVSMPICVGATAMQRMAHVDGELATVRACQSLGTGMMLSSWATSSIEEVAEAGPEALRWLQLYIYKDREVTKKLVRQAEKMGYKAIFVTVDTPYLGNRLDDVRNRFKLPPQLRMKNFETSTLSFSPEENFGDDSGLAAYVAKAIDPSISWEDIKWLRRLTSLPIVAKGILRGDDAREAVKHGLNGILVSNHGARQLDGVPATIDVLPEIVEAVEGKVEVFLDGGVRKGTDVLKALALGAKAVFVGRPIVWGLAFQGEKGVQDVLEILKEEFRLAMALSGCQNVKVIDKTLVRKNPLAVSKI
# Test: GO Enzymatic Assay (Assay 1)
# Assay type: biochemical
# Parameters: purchased Novus Biologicals NBP1-72412
# Conditions: Table 4; class symbols without asterisk, GO Enzymatic Assay (Assay 1); read-out: Range
# Method: Assay 1: GO Enzymatic Assay
# GO was incubated with its substrate, glycolate, in 50 mM potassium phosphate buffer, pH 7. […] The enzyme was optimized and the kinetics was determined.
# Compound inhibition was determined by adding various concentrations of inhibitors in the GO enzyme assay. The IC50 value for each measured compound was generated from sigmoidal dose-response (variable slope) curves with GraphPad Prism software (GraphPad Software, Inc., San Diego, Calif.) using the percent inhibition of GO activity relative to DMSO control.
row,IC50,Structure (SMILES)
1,< 100 nM,"O=C(O)c1[nH]nnc1Sc1ccc(-c2ccc(N3CCCCC3)c(Cl)c2)cc1 [Compound 376, 4-((3′-chloro-4′-(piperidin-1-yl)-[1,1′-biphenyl]-4-yl)thio)-1H-1,2,3-triazole-5-carboxylic acid 2,2,2-trifluoroacetate]"
2,< 100 nM,"O=C(O)c1[nH]nnc1CS[C@H]1CC[C@@H](c2cc(Cl)cc(Cl)c2)CC1 [Compound 377, 4-((((cis)-4-(3,5-dichlorophenyl)cyclohexyl)thio)methyl)-1H-1,2,3-triazole-5-carboxylic acid]"
3,< 100 nM,"O=C(O)c1[nH]nnc1O[C@H]1CC[C@@H](c2ccc(N3CCCCC3=O)cc2)CC1 [Compound 379, 4-(((cis)-4-(4-(2-oxopiperidin-1-yl)phenyl)cyclohexyl)oxy)-1H-1,2,3-triazole-5-carboxylic acid]"
4,< 100 nM,"O=C(O)c1[nH]nnc1Oc1cccc(OC2CCCCC2)c1 [Compound 380, 4-(3-(cyclohexyloxy)phenoxy)-1H-1,2,3-triazole-5-carboxylic acid 2,2,2-trifluoroacetate]"
5,< 100 nM,"O=C(O)c1[nH]nnc1Oc1ccc(Cl)c(OC2CCCC2)c1 [Compound 381, 4-(4-chloro-3-(cyclopentyloxy)phenoxy)-1H-1,2,3-triazole-5-carboxylic acid 2,2,2-trifluoroacetate]"
6,100 to 1000 nM,"O=C(O)c1[nH]nnc1Sc1cccc(OC2CCCCC2)c1 [Compound 382, 4-((3-(cyclohexyloxy)phenyl)thio)-1H-1,2,3-triazole-5-carboxylic acid 2,2,2-trifluoroacetate]"
7,< 100 nM,"O=C(O)c1[nH]nnc1CSC1CCN(c2cc(Cl)ccc2Cl)CC1 [Compound 383, 4-(((1-(2,5-dichlorophenyl)piperidin-4-yl)thio)methyl)-1H-1,2,3-triazole-5-carboxylic acid 2,2,2-trifluoroacetate]"
8,< 100 nM,"O=C(O)c1[nH]nnc1CSC1CCN(c2ccc(Cl)c(Cl)c2)CC1 [Compound 384, 4-(((1-(3,4-dichlorophenyl)piperidin-4-yl)thio)methyl)-1H-1,2,3-triazole-5-carboxylic acid 2,2,2-trifluoroacetate]"
9,< 100 nM,"O=C(O)c1[nH]nnc1SC1CCN(c2cc(Cl)ccc2OC(F)(F)F)CC1 [Compound 386, 4-((1-(5-chloro-2-(trifluoromethoxy)phenyl)piperidin-4-yl)thio)-1H-1,2,3-triazole-5-carboxylic acid 2,2,2-trifluoroacetate]"
10,< 100 nM,"O=C(O)c1[nH]nnc1Oc1ccc(-c2ccc(Cl)cc2)c(OCC2CCCC2)c1 [Compound 387, 4-((4′-chloro-2-(cyclopentylmethoxy)-[1,1′-biphenyl]-4-yl)oxy)-1H-1,2,3-triazole-5-carboxylic acid 2,2,2-trifluoroacetate]"
11,1000 to 10000 nM,"O=C(O)c1[nH]nnc1Oc1ccc(C2CCN(C3CCCCC3)CC2)cc1 [Compound 388, 4-(4-(1-cyclohexylpiperidin-4-yl)phenoxy)-1H-1,2,3-triazole-5-carboxylic acid 2,2,2-trifluoroacetate]"

# Same assay, conditions: human GO, glycolate substrate, pH 7, percent inhibition relative to DMSO control; read-out: Range of IC50 values calculated from the enzymatic assays (Assay 1)
row,IC50,Structure (SMILES)
1,1000 to 10000 nM,"C[N+](C)(C)CCOC(=O)c1[nH]nnc1Sc1ccc(-c2ccc(OC(F)(F)F)cc2)cc1 [Compound 38, N,N,N-trimethyl-2-((4-((4′-(trifluoromethoxy)-[1,1′-biphenyl]-4-yl)thio)-1H-1,2,3-triazole-5-carbonyl)oxy)ethan-1-aminium iodide]"
2,< 100 nM,"O=C(O)c1[nH]nnc1O[C@H]1CC[C@H](c2ccc(OC(F)(F)F)cc2)CC1 [Compound 272-1, 4-(((trans)-4-(4-(trifluoromethoxy)phenyl)cyclohexyl)oxy)-1H-1,2,3-triazole-5-carboxylic acid]"
3,< 100 nM,"O=C(O)c1[nH]nnc1O[C@H]1CC[C@@H](c2ccc(OC(F)(F)F)cc2)CC1 [Compound 272-2, 4-(((cis)-4-(4-(trifluoromethoxy)phenyl)cyclohexyl)oxy)-1H-1,2,3-triazole-5-carboxylic acid]"
